Results from patent US7989464B2, “mGluR1 antagonists as therapeutic agents” (Schering Corporation, priority 2004, dated 2011).
Where two headings read alike, the source gives them in different places.

Target: T1, hmGluR1 receptor (Homo sapiens, UniProt Q13255)
T1 construct: expressed in transfected cells
Assay: IC50 determination: intracellular calcium mobilization (FLIPR) upon Quisqualate stimulation in CHO cells stably expressing hmGluR1
Assay type: cell-based
Settings: against Quisqualate 1 μM (EC80)
In short: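 CHO cells stably expressing hmGluR1 were kept overnight in DMEM high glucose with GPT and 1 mM pyruvate, then loaded 2 h with Calcium 3 dye.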

[1] = FLIPR calcium mobilization, read-out: IC50 Class
[2] = class symbols, read-out: mGIuR 1 IC50
[3] = FLIPR calcium mobilization, read-out: mGluR1 IC50

T1 sequence (Q13255 19-1194): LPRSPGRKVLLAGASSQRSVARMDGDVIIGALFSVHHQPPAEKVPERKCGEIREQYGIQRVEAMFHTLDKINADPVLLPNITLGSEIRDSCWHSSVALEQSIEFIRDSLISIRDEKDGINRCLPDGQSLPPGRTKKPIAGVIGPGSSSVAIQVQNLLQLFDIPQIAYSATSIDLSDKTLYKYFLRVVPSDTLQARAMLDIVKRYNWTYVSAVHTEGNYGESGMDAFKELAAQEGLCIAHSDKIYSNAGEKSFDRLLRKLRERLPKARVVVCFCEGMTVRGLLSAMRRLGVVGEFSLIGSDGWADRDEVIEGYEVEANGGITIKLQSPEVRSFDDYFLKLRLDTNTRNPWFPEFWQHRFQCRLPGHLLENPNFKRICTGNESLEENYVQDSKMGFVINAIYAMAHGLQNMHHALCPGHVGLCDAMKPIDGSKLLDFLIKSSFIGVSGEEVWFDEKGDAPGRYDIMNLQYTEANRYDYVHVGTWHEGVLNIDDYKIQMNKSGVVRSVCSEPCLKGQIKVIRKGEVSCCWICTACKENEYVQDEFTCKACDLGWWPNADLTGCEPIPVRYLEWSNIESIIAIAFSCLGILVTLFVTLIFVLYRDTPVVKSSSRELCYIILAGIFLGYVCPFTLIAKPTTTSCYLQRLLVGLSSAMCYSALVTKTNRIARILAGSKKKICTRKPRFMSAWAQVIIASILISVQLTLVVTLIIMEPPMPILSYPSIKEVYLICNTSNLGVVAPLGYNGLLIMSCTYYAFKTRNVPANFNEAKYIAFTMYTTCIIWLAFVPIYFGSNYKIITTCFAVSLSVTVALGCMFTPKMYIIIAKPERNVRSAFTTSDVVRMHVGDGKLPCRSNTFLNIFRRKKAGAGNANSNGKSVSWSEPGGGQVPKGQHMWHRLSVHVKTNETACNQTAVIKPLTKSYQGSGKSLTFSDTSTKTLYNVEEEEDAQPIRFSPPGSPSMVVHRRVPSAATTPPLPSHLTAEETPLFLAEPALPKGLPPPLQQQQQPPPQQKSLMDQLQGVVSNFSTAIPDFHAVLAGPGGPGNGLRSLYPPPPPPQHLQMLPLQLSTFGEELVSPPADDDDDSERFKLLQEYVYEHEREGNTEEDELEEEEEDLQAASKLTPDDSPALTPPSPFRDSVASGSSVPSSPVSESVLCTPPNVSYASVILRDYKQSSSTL

IC50 [1] [nM] | IC50 [2] [nM] | IC50 [3] [nM] | SMILES
< 50 | – | – | CCc1ccc(-n2cnc3c(sc4nccc(N(C)CC)c43)c2=O)cc1 [28BS]
> 1000 | – | – | COc1ccc(-n2cnc3c(sc4nccc(OC)c43)c2=O)c(C)c1 [28BL]
– | < 50 | – | COc1ccc(-n2cnc3c(sc4nccc(N(C)C)c43)c2=O)cc1C [7DJ]
– | < 50 | – | CN(C)c1ccnc2sc3c(=O)n(C4CCCCCCC4)cnc3c12 [15Q]
< 50 | – | – | C=C(C)CNc1ncnc2sc3c(=O)n(-c4ccc(F)cc4)cnc3c12 [95FI]
– | 150 to 1000 | – | CN(C)c1ccnc2sc3c(=O)n(-c4nc5ccccc5s4)cnc3c12 [7BQ]
– | 150 to 1000 | – | COc1ccnc2sc3c(=O)n(C4CCCCC4)cnc3c12 [25A]
– | < 50 | – | CN(C)c1ccnc2sc3c(=O)n(-c4ccc(F)cc4)cnc3c12 [7G]
50 to 150 | – | – | CN(CCO)c1ccnc2sc3c(=O)n(-c4ccc(F)cc4)cnc3c12 [28HH]
150 to 1000 | – | – | Cc1ccc(-n2cnc3c(sc4nccc(N(C)NS(C)(=O)=O)c43)c2=O)cc1 [73J]
< 50 | – | – | COc1ccc(-n2cnc3c(sc4nccc(C(C)C)c43)c2=O)cc1 [29H]
< 50 | – | – | CCN(C)c1ccnc2sc3c(=O)n(-c4ccc5occc5c4)cnc3c12 [28BU]
> 1000 | – | – | CN(C)c1cccc2sc3c(=O)n(-c4cccc(Cl)c4)cnc3c12 [103H]
150 to 1000 | – | – | O=c1c2sc3ncnc(NC4CCC4)c3c2ncn1-c1ccc(F)cc1 [95DF]
– | 150 to 1000 | – | CN(C)c1ccnc2sc3c(=O)n(-c4ccc(Cl)cc4I)cnc3c12 [7N]
< 50 | – | – | COc1ccc(-n2cnc3c(sc4nc(N)cc(N(C)C)c43)c2=O)cc1 [59F]
< 50 | – | – | C#CCNc1ncnc2sc3c(=O)n(-c4ccc5scnc5c4)cnc3c12 [95EL]
50 to 150 | – | – | COc1ccc(Nc2ncnc3sc4c(=O)n(-c5ccc(Cl)cc5)cnc4c23)cc1 [95GH]
– | 150 to 1000 | – | CN(C)c1ccnc2sc3c(=O)n(C(C)(C)C)cnc3c12 [15P]
– | 150 to 1000 | – | CCCc1nc2c(sc3nccc(N(C)C)c32)c(=O)n1-c1ccc(C)cc1 [116B]
150 to 1000 | – | – | CNc1c(CNC2CCC2)cnc2sc3c(=O)n(-c4ccc(OC)cc4)cnc3c12 [compound 208]
150 to 1000 | – | – | O=c1c2sc3nccc(NCC4CC4)c3c2ncn1-c1ccc2occc2c1 [28BX]
< 50 | – | – | COc1ccc(-n2cnc3c(sc4ncnc(NC5CC5)c43)c2=O)c(C)c1 [95AW]
> 1000 | – | – | COCCn1cnc2c(sc3ncnc(NC4CCC4)c32)c1=O [95DW]
< 50 | – | 1.6 | CN(C)c1ncnc2sc3c(=O)n(-c4ccc5occc5c4)cnc3c12 [95AP]

IC50 [1] [nM] | IC50 [2] [nM] | IC50 [3] [nM] | SMILES
– | 150 to 1000 | – | Cc1ccc(-n2cnc3c(sc4nccc(NCC5CC5)c43)c2=O)cc1 [28AY]
– | > 1000 | – | CN(C)c1ccnc2sc3c(=O)n(C4CC4)cnc3c12 [15K]
< 50 | – | 1.08 | C=CCN(C)c1ccnc2sc3c(=O)n(-c4ccc(Cl)cc4)cnc3c12 [28DZ]
150 to 1000 | – | – | O=c1c2sc3ncnc(Nc4ccccc4)c3c2ncn1-c1ccc(Cl)cc1 [95FX]
– | 150 to 1000 | – | COc1ccc(-n2cnc3c(sc4nccc(OC)c43)c2=O)cc1 [25B]
– | > 1000 | – | C#CCn1cnc2c(sc3nccc(N(C)C)c32)c1=O [7BH]
– | < 50 | 1.73 | Cc1cc(-n2cnc3c(sc4nccc(N(C)C)c43)c2=O)ccc1Br [7DR]
– | > 1000 | – | CN(C)c1ccnc2sc3c(=O)n(-c4ccc5[nH]c(C(F)(F)F)nc5c4)cnc3c12 [7BD]
– | 150 to 1000 | – | CC(=O)c1c(C)nc2sc3c(=O)n(-c4ccc(C)cc4)cnc3c2c1-c1ccc(Cl)cc1 [P-8]
– | > 1000 | – | CC(C)Oc1ccc(-n2cnc3c(sc4nccc(N(C)C)c43)c2=O)cc1 [7AQ]
– | 50 to 150 | – | COc1ccc(-n2cnc3c(sc4nccc(N5CCC5)c43)c2=O)cc1 [28AM]
150 to 1000 | – | – | CNc1nncc2sc3c(=O)n(-c4ccc(C)cc4)cnc3c12 [167H]
< 50 | – | – | CCc1ncnc2sc3c(=O)n(-c4ccc(OC)cc4)cnc3c12 [compound 201]
– | 50 to 150 | – | CN(C)c1ccnc2sc3c(=O)n(Cc4ccccc4)cnc3c12 [7C]
– | < 50 | – | CCNc1ccnc2sc3c(=O)n(-c4ccc(C)cc4)cnc3c12 [131D]
< 50 | – | 1.22 | CCNc1ccnc2sc3c(=O)n(-c4ccc(Cl)cc4)cnc3c12 [28HZ]
– | 150 to 1000 | – | Cc1ccc(-n2cnc3c4c(N(C)C)ccnc4n(C)c3c2=O)cc1 [134A]
150 to 1000 | – | – | COc1ccc(-n2cnc3c(sc4ncc(C#N)c(N)c43)c2=O)cc1 [compound 194]
< 50 | – | – | COc1ccc(-n2cnc3c(sc4nc(Cl)cc(N(C)C)c43)c2=O)cc1 [57C]
< 50 | – | 0.77 | O=c1c2sc3nccc(NCCCO)c3c2ncn1-c1ccc(Cl)cc1 [28GD]
50 to 150 | – | – | O=c1c2sc3ncnc(NC4CC4)c3c2ncn1-c1ccc(C2CC2)cc1 [137C]
< 50 | – | – | O=c1c2sc3ncnc(NCC(F)(F)F)c3c2ncn1-c1ccc(Cl)cc1 [95EF]
– | 50 to 150 | – | CN(C)c1ccnc2sc3c(=O)n(-c4cccnc4)cnc3c12 [7O]
< 50 | – | – | O=c1c2sc3nccc(N4CCCC4)c3c2ncn1-c1ccc(Cl)cc1 [28GF]
– | > 1000 | – | CSc1ccc(-n2cnc3c4c(N(C)C)ccnc4n(C)c3c2=O)cc1 [134C]

IC50 [1] [nM] | IC50 [2] [nM] | IC50 [3] [nM] | SMILES
– | > 1000 | – | CN(C)c1ccnc2c1c1ncn(-c3ccc4ncsc4c3)c(=O)c1n2C [134E]
150 to 1000 | – | – | CN(C)c1cccc2sc3c(=O)n(-c4cccc(F)c4)cnc3c12 [103M]
< 50 | – | 28.3 | CNc1ncnc2sc3c(=O)n(-c4ccc(OC)cc4F)cnc3c12 [95BI]
– | < 50 | – | Cc1cccc(-n2cnc3c(sc4nccc(N(C)C)c43)c2=O)c1 [7CU]
– | < 50 | – | CCc1ccc(-n2cnc3c(sc4nccc(N(C)C)c43)c2=O)cc1 [7BJ]
< 50 | – | – | C#CCNc1ncnc2sc3c(=O)n(-c4ccc(F)cc4)cnc3c12 [95ER]
– | 50 to 150 | – | COc1ccc(-n2cnc3c(sc4cccc(N(C)C)c43)c2=O)cc1 [103E]
– | 50 to 150 | – | Cc1cc(-n2cnc3c(sc4nccc(N(C)C)c43)c2=O)no1 [15AE]
150 to 1000 | – | – | COc1cc(-n2cnc3c(sc4nccc(N(C)C)c43)c2=O)ccc1F [28FW]
< 50 | – | 1.46 | C=CCc1cnc2sc3c(=O)n(-c4ccc(Cl)cc4)cnc3c2c1N [178B]
< 50 | – | – | C=C(C)CNc1ncnc2sc3c(=O)n(-c4ccc(OC)cc4)cnc3c12 [95FT]
– | < 50 | – | C#CCNc1ccnc2sc3c(=O)n(C4CCCCC4)cnc3c12 [72G]
50 to 150 | – | – | COc1ccc(-n2cnc3c(sc4nccc(NC5CC5)c43)c2=O)c(F)c1 [131H]
< 50 | – | – | C#CCNc1ncnc2sc3c(=O)n(-c4ccc5occc5c4)cnc3c12 [95ES]
> 1000 | – | – | CN(C)c1cccc2sc3c(=O)n(-c4cccc(Cl)c4Cl)cnc3c12 [103I]
> 1000 | – | – | O=c1c2sc3ncnc(Nc4ccccc4)c3c2ncn1-c1ccc(F)cc1 [95FZ]
– | < 50 | – | CN(C)c1ccnc2sc3c(=O)n(-c4cccs4)cnc3c12 [15AB]
– | < 50 | – | Cc1cc(N(C)C)c2c(n1)sc1c(=O)n(-c3ccc(Br)cc3)cnc12 [7CY]
– | < 50 | – | C#CCOc1ccnc2sc3c(=O)n(-c4ccc(C)cc4)cnc3c12 [66A]
– | < 50 | – | CN(C)c1ccc(-n2cnc3c(sc4nccc(N(C)C)c43)c2=O)cc1 [7AJ]
– | 150 to 1000 | – | Cc1ccc(-n2cnc3c(sc4nc(C(C)C)cc(N(C)C)c43)c2=O)cc1 [87A]
– | 150 to 1000 | – | CN1CCC(n2cnc3c(sc4nccc(N(C)C)c43)c2=O)CC1 [15U]
– | 150 to 1000 | – | CN(C)c1ccnc2sc3c(=O)n(-c4ccc(Br)c(C(F)(F)F)c4)cnc3c12 [7DS]
< 50 | – | – | CCNc1ncnc2sc3c(=O)n(-c4ccc5ncsc5c4)cnc3c12 [95BK]
– | < 50 | – | CN(C)c1c(C#N)cnc2sc3c(=O)n(C4CCCCC4)cnc3c12 [compound 46]

IC50 [1] [nM] | IC50 [2] [nM] | IC50 [3] [nM] | SMILES
50 to 150 | – | – | CC(O)c1ccnc2sc3c(=O)n(-c4ccc(Cl)cc4)cnc3c12 (stereo not drawn) [compound 185]
– | > 1000 | – | O=c1c2sc3nccc(NC4CCCCC4)c3c2ncn1C1CCCCC1 [28C]
– | < 50 | – | CN(C)c1ccnc2sc3c(=O)n(-c4ccc5occc5c4)cnc3c12 [7BY]
< 50 | – | 1.37 | O=c1c2sc3ncnc(NC4CC4)c3c2ncn1-c1ccc(Br)cc1 [95AU]
– | 50 to 150 | – | CN(C)c1cccc2sc3c(=O)n(-c4ccc(Cl)cc4)cnc3c12 [103A]
< 50 | – | – | O=c1c2sc3nccc(NC4CC4)c3c2ncn1-c1ccc2c(c1)OCCO2 [28CK]
– | 50 to 150 | – | CCCCn1cnc2c(sc3nccc(N(C)C)c32)c1=O [7P]
– | 50 to 150 | – | COc1ccc(-n2cnc3c(sc4cncc(N(C)C)c43)c2=O)cc1 [37F]
– | < 50 | – | CCNc1ncnc2sc3c(=O)n(-c4ccc(OC(F)F)cc4)cnc3c12 [95W]
– | > 1000 | – | O=c1c2sc3nccc(Nc4ccccc4)c3c2ncn1C1CCCCC1 [28H]
< 50 | – | – | CCNc1ccnc2sc3c(=O)n(-c4ccc(F)cc4)cnc3c12 [28HY]
– | < 50 | – | CN(C)c1ncnc2sc3c(=O)n(-c4ccc5ncsc5c4)cnc3c12 [95C]
– | 50 to 150 | – | COc1ccc(-n2cnc3c(sc4nccc(N(C)C)c43)c2=O)cc1Cl [7T]
50 to 150 | – | – | C=CCNc1ccnc2sc3c(=O)n(-c4ccc(Cl)cc4)cnc3c12 [28DY]
– | < 50 | – | CN(C)c1ccnc2sc3c(=O)n(-c4ccc5c(c4)CC=C5)cnc3c12 [7BL]
– | < 50 | – | CCNc1ncnc2sc3c(=O)n(-c4ccc5c(c4)CCO5)cnc3c12 [95AC]
– | 150 to 1000 | – | CN(C)c1ccnc2sc3c(=O)n(-c4cccc5nonc45)cnc3c12 [7BR]
– | < 50 | – | Cc1ccc(-n2c(C)nc3c(sc4nccc(N(C)C)c43)c2=O)cc1 [113A]
< 50 | – | – | O=c1c2sc3nccc(NC4CC4)c3c2ncn1-c1ccc2occc2c1 [28BI]
– | 50 to 150 | – | Cc1cccc(-n2cnc3c(sc4nccc(N(C)C)c43)c2=O)n1 [7CX]
150 to 1000 | – | – | Cc1ccc(-n2cnc3c(sc4ncnc(NCC5CCCO5)c43)c2=O)cc1 (stereo not drawn) [95FQ]
< 50 | – | – | CNc1ccnc2sc3c(=O)n(-c4ccc(OC)cc4C)cnc3c12 [28BN]
